US5668152A, “Protein kinase C inhibitors” (priority 1995, dated 1997)

Key:
[1] = molecular target: protein kinase C alpha (Homo sapiens, UniProt P17252); assay: PKC Enzyme assay, alpha isozyme; type: biochemical; conditions: PKC alpha; 30 μM ATP, 30° C., 10 minutes; read-out: IC50 α
Description: (§1) PKC enzymes=alpha, beta I, beta II, gamma, delta, epsilon, eta and zeta.
(§2) Assay components in a total volume of 250 μL are the following:
(§3) Vesicles consisting of 120 μg/mL phosphatidylserine (Avanti Polar Lipids) and sufficient diacylglycerol (Avanti Polar Lipids) to activate the enzyme to maximum activity in 20 mM HEPES buffer (Sigma, St. Louis, Mo.), pH 7.5, 940 μM calcium chloride (Sigma, St. Louis, Mo.) for assaying the alpha, beta I, beta II and gamma enzyme only, 1 mM EGTA for all the enzymes, 10 mM magnesium chloride (Sigma, St. Louis, Mo.) and 30 μM (gamma-32P) ATP (DuPont). For all the enzymes either histone type HL (Worthington) or myelin basic protein is used as substrate. The assay is started by addition of protein kinase C enzyme incubated at 30° C. for 10 minutes and stopped by adding 0.5 mL of cold trichloroacetic acid (Amresco) followed by 100 μL of 1 mg/mL bovine serum albumin (Sigma, St. Louis, Mo.). The precipitate is collected by vacuum filtration on glass fiber filters employing a TOMTEC™ filtration system and quantified by counting in a beta scintillation counter.

[2] = molecular target: protein kinase C beta-1 (Homo sapiens, UniProt P05771); assay: PKC Enzyme assay, beta I isozyme; type: biochemical; conditions: PKC beta-1; 30 μM ATP, 30° C., 10 minutes; read-out: IC50 β1
Description: as §1, §2, §3

[3] = molecular target: protein kinase C beta-2 (Homo sapiens, UniProt P05771); assay: PKC Enzyme assay, beta II isozyme; type: biochemical; conditions: PKC beta-2; 30 μM ATP, 30° C., 10 minutes; read-out: IC50 β2
Description: as §1, §2, §3

[4] = molecular target: protein kinase C gamma (Homo sapiens, UniProt P05129); assay: PKC Enzyme assay, gamma isozyme; type: biochemical; conditions: PKC gamma; 30 μM ATP, 30° C., 10 minutes; read-out: IC50 γ
Description: as §1, §2, §3

[5] = molecular target: protein kinase C delta (Homo sapiens, UniProt Q05655); assay: biochemical; conditions: PKC delta; 30 μM ATP, 30° C., 10 minutes; read-out: IC50 δ
Description: as §1, §2, §3

[6] = molecular target: T1, protein kinase C epsilon (Homo sapiens, UniProt Q02156); assay: PKC Enzyme assay, epsilon isozyme; type: biochemical; conditions: PKC epsilon; 30 μM ATP, 30° C., 10 minutes; read-out: IC50 ε
T1 sequence (Q02156 1-737): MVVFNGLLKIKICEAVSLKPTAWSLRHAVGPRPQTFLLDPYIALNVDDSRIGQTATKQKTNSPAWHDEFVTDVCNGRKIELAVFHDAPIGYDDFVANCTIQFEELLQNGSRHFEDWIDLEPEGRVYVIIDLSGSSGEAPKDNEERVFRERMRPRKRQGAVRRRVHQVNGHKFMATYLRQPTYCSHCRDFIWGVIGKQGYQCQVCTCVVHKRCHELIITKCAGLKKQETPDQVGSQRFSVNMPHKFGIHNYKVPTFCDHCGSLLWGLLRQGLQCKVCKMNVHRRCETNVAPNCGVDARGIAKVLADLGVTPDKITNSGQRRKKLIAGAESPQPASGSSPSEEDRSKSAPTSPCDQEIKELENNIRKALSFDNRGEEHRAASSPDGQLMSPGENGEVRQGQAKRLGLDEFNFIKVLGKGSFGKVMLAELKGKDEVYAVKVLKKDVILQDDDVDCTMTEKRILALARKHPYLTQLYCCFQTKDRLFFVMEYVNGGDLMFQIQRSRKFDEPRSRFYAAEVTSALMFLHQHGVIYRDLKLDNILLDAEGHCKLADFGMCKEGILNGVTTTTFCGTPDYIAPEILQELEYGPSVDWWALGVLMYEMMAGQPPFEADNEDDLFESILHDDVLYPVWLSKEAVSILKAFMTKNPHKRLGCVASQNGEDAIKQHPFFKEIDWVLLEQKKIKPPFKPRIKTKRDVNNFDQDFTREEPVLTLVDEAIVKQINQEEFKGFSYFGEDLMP
Description: as §1, §2, §3

[7] = molecular target: T2, protein kinase C zeta (Homo sapiens, UniProt Q05513); assay: PKC Enzyme assay, zeta isozyme; type: biochemical; conditions: PKC zeta; 30 μM ATP, 30° C., 10 minutes; read-out: IC50 ζ
T2 sequence (Q05513 1-592): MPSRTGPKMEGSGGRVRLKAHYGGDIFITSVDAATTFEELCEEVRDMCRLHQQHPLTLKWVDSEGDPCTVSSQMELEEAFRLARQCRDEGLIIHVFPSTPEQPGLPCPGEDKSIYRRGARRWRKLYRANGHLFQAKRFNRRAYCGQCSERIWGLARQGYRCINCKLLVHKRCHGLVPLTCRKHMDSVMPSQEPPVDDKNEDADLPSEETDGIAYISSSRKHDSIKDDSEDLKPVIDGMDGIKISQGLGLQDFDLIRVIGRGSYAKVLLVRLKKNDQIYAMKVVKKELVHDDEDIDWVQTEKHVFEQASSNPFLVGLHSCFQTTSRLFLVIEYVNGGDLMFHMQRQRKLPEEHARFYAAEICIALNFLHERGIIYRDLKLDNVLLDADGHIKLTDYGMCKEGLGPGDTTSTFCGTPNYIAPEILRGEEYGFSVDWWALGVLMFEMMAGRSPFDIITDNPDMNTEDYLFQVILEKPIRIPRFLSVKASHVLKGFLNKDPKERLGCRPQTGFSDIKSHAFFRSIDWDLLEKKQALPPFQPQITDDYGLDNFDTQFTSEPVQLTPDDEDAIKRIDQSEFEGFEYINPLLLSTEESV
Description: as §1, §2, §3

[8] = molecular target: protein kinase C eta (Homo sapiens, UniProt P24723); assay: PKC Enzyme assay, eta isozyme; type: biochemical; conditions: PKC eta; 30 μM ATP, 30° C., 10 minutes; read-out: IC50 η
Description: as §1, §2, §3

protein kinase C beta-1, sequence (P05771 whole entry): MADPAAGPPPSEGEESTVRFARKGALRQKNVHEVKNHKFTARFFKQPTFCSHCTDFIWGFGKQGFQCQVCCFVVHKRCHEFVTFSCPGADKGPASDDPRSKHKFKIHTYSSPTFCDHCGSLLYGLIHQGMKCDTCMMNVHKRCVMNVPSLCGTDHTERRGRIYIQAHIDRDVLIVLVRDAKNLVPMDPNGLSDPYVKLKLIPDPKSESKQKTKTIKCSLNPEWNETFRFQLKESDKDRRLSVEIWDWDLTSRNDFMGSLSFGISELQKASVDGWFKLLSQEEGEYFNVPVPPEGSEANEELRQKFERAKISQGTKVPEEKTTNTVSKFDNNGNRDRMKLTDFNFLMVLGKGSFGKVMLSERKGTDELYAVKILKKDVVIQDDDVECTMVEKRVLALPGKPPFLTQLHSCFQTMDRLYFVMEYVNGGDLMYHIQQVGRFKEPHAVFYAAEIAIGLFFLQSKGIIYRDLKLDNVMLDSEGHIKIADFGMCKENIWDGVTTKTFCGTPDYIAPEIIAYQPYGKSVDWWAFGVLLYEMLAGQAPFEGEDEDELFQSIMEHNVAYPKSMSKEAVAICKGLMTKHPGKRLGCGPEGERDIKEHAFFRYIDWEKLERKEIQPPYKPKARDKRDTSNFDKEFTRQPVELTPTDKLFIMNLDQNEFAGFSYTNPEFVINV
protein kinase C eta, sequence (P24723 whole entry): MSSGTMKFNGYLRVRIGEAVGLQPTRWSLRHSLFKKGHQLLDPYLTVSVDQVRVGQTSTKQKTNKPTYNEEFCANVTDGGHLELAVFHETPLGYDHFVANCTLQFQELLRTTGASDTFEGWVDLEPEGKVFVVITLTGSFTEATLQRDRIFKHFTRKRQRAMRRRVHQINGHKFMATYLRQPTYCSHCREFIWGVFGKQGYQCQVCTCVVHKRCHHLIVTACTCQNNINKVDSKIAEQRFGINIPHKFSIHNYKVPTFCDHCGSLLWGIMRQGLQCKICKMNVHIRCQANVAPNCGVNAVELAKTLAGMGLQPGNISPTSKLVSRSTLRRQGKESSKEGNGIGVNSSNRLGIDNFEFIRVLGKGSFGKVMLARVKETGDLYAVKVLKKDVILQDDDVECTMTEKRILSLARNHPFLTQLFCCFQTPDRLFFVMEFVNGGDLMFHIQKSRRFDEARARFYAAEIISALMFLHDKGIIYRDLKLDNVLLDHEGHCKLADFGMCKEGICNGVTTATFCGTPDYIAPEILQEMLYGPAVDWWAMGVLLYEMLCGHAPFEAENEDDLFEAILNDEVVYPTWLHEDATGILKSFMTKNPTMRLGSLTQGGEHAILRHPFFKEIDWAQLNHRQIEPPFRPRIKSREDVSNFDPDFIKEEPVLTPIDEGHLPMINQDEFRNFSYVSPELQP
protein kinase C delta, sequence (Q05655 whole entry): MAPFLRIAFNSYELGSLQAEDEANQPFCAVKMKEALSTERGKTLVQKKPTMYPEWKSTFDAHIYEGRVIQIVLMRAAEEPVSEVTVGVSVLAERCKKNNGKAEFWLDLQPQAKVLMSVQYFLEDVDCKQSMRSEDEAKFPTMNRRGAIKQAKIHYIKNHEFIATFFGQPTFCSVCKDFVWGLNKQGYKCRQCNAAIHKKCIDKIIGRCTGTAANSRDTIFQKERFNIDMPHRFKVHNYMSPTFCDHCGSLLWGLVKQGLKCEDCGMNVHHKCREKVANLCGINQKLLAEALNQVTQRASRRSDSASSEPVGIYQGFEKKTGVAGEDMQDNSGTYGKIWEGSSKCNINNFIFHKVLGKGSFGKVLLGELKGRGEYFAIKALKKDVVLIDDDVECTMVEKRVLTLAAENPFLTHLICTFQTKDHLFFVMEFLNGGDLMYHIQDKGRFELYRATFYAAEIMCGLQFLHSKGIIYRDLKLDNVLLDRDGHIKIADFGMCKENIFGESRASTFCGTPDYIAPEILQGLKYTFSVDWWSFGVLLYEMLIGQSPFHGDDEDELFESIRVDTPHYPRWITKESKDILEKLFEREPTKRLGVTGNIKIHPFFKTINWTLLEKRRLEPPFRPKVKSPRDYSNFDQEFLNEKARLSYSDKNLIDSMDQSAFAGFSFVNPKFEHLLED
protein kinase C beta-2, sequence (P05771 1-673 isoform P05771-2): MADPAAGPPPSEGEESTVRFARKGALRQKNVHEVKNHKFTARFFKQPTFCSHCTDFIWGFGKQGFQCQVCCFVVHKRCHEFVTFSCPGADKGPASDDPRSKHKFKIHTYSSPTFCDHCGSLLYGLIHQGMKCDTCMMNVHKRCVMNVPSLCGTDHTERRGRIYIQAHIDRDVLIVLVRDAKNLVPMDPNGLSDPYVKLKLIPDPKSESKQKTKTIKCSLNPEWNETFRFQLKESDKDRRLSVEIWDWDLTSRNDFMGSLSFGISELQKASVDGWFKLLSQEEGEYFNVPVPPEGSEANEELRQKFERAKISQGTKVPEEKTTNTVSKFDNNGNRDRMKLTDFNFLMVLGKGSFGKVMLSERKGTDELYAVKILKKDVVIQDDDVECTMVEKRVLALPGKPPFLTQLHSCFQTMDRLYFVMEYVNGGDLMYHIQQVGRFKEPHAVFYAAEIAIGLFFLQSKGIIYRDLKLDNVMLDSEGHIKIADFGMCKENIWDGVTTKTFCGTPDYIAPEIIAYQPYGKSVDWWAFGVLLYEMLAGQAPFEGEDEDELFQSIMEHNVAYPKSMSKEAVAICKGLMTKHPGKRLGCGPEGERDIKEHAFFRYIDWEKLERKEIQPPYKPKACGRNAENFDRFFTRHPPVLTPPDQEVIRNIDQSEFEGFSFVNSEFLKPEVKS

Row | IC50 [1] [µM] | IC50 [2] [µM] | IC50 [3] [µM] | IC50 [4] [µM] | IC50 [5] [µM] | IC50 [6] [µM] | IC50 [7] [µM] | IC50 [8] [µM] | Structure (SMILES)
1 | 6.7 | 1.1 | 0.34 | 15 | 7.9 | 4.3 | 37 | 2.5 | Cn1cc(C2=C(c3cn(CCCCOC4CC(O)C(CN)O4)c4ccccc34)C(=O)NC2=O)c2ccccc21 (stereo not shown) [Example 54]
2 | 2.3 | 0.26 | 0.05 | 4.2 | 0.95 | 6.6 | 45 | 1.2 | CC(=O)NCC1OC(OCCCCn2cc(C3=C(c4cn(C)c5ccccc45)C(=O)NC3=O)c3ccccc32)CC1OC(C)=O (stereo not shown) [Example 55]
3 | 1.6 | 0.069 | 0.039 | 3.2 | 0.93 | 2.4 | 49 | 1.3 | Cn1cc(C2=C(c3cn(CCCCOC4C[C@H](O)[C@@H](CO)O4)c4ccccc34)C(=O)NC2=O)c2ccccc21 (stereo partly shown) [Example 56]
4 | 4.9 | 0.24 | 0.27 | 38 | 4.5 | 12 | 46 | 2.5 | Cn1cc(C2=C(c3cn(CCO[C@@H]4C[C@H](O)[C@@H](CN=[N+]=[N-])O4)c4ccccc34)C(=O)NC2=O)c2ccccc21 [Example 58]
5 | 4.5 | 0.2 | 0.11 | 9 | 2.8 | 31 | 48 | 1.6 | Cn1cc(C2=C(c3cn(CCOC4O[C@H](CO)[C@@H](O)[C@@H](N=[N+]=[N-])[C@H]4O)c4ccccc34)C(=O)NC2=O)c2ccccc21 (stereo partly shown) [Example 59]
6 | 4.5 | 0.18 | 0.042 | 24 | 7.4 | 91 | 75 | 3.6 | Cn1cc(C2=C(c3cn(CCOC4O[C@H](CO)[C@@H](O)[C@@H](O)[C@H]4N=[N+]=[N-])c4ccccc34)C(=O)NC2=O)c2ccccc21 (stereo partly shown) [Example 60]
7 | 3.6 | 0.16 | 0.041 | 4.8 | 3.2 | 20 | 20 | 0.75 | Cn1cc(C2=C(c3cn(CCOC4C[C@H](N=[N+]=[N-])[C@@H](CO)O4)c4ccccc34)C(=O)NC2=O)c2ccccc21 (stereo partly shown) [Example 61]
8 | 4.4 | 0.2 | 0.1 | 5.2 | 3.9 | 42 | 41 | 2.6 | Cn1cc(C2=C(c3cn(CCOC4C[C@@H](N=[N+]=[N-])[C@@H](CO)O4)c4ccccc34)C(=O)NC2=O)c2ccccc21 (stereo partly shown) [Example 62]
9 | 1.7 | 0.13 | 0.049 | 4 | 1.6 | 3.6 | 50 | 0.14 | Cn1cc(C2=C(c3cn(CCOC4C[C@H](N)[C@@H](CO)O4)c4ccccc34)C(=O)NC2=O)c2ccccc21 (stereo partly shown) [Example 63]
10 | 0.16 | 0.005 | 0.005 | 0.28 | 0.16 | 0.8 | 50 | 0.04 | Cn1cc(C2=C(c3cn(C4CCOC4)c4ccccc34)C(=O)NC2=O)c2ccccc21 (stereo not shown) [Example 64]
11 | 6.6 | 0.3 | 0.2 | 8.2 | 4.1 | 38 | 47 | 2.6 | Cn1cc(C2=C(c3cn(CCOC4O[C@H](CO)[C@@H](O)[C@@H](N)[C@H]4O)c4ccccc34)C(=O)NC2=O)c2ccccc21 (stereo partly shown) [Example 67]
